Measurements taken from paper PMC11762167, “G Protein-Coupled Receptor 17 Inhibits Glucagon-like Peptide-1 Secretion via a Gi/o-Dependent Mechanism in Enteroendocrine Cells” (Biomolecules, 2024).

How the values were obtained:
mGPR17 [1] = biological target: T1, mGPR17 (Mus musculus, UniProt Q6NS65); assay: Endpoint cAMP in GLUTag cells expressing mGPR17; type: cell-based; parameters: host or cells: GLUTag cells, adenoviral transduction
Protocol: (§1) GLUTag cells were maintained in Dulbecco’s Modified Eagle Medium (DMEM) supplemented with 10% fetal bovine serum and 1% penicillin–streptomycin in a humidified incubator at 37 °C and 5% CO2. For adenovirus transduction, GLUTag cells were seeded into poly-D-lysine coated 96-well plates or 4-chamber slides. The next day, cells were transduced with adenoviruses (100–1250 viral particles per cell at time of seeding) as indicated. After 24–30 h, adenovirus-containing media was changed to serum-free growth media for overnight serum starvation. The following day, GLUTag cells were used for cAMP or calcium signaling assays, GLP-1 secretion assays, or immunostaining and imaging.
(§2) Endpoint cAMP measurements were conducted as follows. GLUTag cells were seeded into poly-D-lysine-coated 96-well plates and transduced with adenovirus as specified above and then tested for cAMP signaling. Medium was removed and cells were washed with cAMP stimulation buffer (Hanks’ balanced salt solution (HBSS), 20 mM HEPES, pH 7.4) and then incubated in cAMP stimulation buffer for 30 min at 37 °C and 5% CO2. Cells were then treated for 30 min with agonist and forskolin in the presence of 500 µM IBMX at 37 °C and 5% CO2. Stimulation buffer was then decanted, and cAMP lysis buffer (50 mM HEPES, 10 mM CaCl2, 0.35% Triton X-100, and 500 µM IBMX) was added and shaken at 700 rpm for 1 h. Lysate was transferred to a 384-well plate, and the cAMP levels were quantified using the Cisbio HTRF cAMP (Gi kit; Revvity, Waltham, MA, USA) according to the manufacturer’s protocol.

mGPR17 [2] = biological target: T1, mGPR17; assay: GloSensor cAMP in HEK293 cells transfected with mGPR17; type: cell-based; parameters: host or cells: GLUTag cells, adenoviral transduction
Protocol: HEK293 cells were maintained and transfected as previously described.
Live-cell, real-time cAMP measurements were performed using Promega (Madison, WI, USA) GloSensor cAMP luminescent biosensor technology. Glosensor cAMP experiments were conducted as previously described in GLUTag cells and HEK293 cells.

hGPR17L-V96M = biological target: T2, hGPR17L-V96M (Homo sapiens, UniProt Q13304, V96M); assay: Endpoint cAMP in GLUTag cells expressing hGPR17L-V96M; type: cell-based
T2 construct: host or cells: GLUTag cells, adenoviral transduction
T2 sequence (Q13304 whole entry V96M): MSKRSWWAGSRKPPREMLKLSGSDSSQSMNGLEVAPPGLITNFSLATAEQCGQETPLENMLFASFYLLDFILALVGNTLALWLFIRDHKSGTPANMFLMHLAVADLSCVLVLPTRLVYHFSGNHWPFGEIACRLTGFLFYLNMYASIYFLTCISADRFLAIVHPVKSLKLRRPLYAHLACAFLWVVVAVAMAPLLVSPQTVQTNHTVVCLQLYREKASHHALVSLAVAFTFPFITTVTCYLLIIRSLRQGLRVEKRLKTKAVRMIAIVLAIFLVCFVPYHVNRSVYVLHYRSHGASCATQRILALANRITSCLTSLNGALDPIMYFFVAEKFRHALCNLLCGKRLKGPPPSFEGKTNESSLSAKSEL
Protocol: as §1, §2

GLUTag cells = assay: Endpoint cAMP (HTRF) in control-transduced GLUTag cells; type: cell-based, murine; parameters: Mean Diff. of cAMP, MDL29,951 vs FSK alone (Tukey): unit not given here; details: for Mean Diff. of cAMP, MDL29,951 vs FSK alone (Tukey): Ctl
Protocol: as §1, §2

hGPR17L = hGPR17L (Homo sapiens, UniProt Q13304); assay: Endpoint cAMP (HTRF) in GLUTag cells expressing hGPR17L; type: cell-based; parameters: host or cells: GLUTag cells (murine enteroendocrine line), adenoviral transduction; details: for Predicted (LS) mean diff.: Fig 2B, Forskolin, log [MDL29,951] (M) -4.0 vs. Vehicle
Chain of hGPR17L (Q13304 whole entry): as the sequence (Q13304 whole entry V96M) above, with M96V counted along it
Protocol: as §1, §2

[3] = 10 µM forskolin, GLUTag hGPR17L

T1 sequence (Q6NS65 whole entry): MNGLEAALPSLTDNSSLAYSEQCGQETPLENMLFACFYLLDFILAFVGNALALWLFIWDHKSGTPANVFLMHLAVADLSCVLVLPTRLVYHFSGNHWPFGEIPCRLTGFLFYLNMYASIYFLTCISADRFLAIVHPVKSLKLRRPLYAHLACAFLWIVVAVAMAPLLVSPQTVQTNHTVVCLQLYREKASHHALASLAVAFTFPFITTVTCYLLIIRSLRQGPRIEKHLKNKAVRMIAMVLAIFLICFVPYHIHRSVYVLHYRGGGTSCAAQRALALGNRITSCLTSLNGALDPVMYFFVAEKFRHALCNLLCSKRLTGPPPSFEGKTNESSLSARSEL

## O=C(O)CCc1c(C(=O)O)[nH]c2cc(Cl)cc(Cl)c12 [MDL29,951]
mGPR17 [1]; 10 µM forskolin, GLUTag mGPR17
  concentration of maximal inhibition of forskolin-stimulated cAMP: 1 µM
mGPR17 [1]; mGPR17 (100), log [MDL29,951] (M) -4.0 vs. Vehicle, Forskolin stimulation, Figure 4B
  Mean Diff. (Tukey's multiple comparisons test), cAMP, Row 10 vs. Row 11: -19.04
mGPR17 [1]; mGPR17 (100), log [MDL29,951] (M) -4.6 vs. Vehicle, Forskolin stimulation, Figure 4B
  Mean Diff. (Tukey's multiple comparisons test), cAMP, Row 9 vs. Row 11: -22.19
mGPR17 [1]; mGPR17 (100), log [MDL29,951] (M) -5.2 vs. Vehicle, Forskolin stimulation, Figure 4B
  Mean Diff. (Tukey's multiple comparisons test), cAMP, Row 8 vs. Row 11: -23.87
mGPR17 [1]; mGPR17 (100), log [MDL29,951] (M) -5.8 vs. Vehicle, Forskolin stimulation, Figure 4B
  Mean Diff. (Tukey's multiple comparisons test), cAMP, Row 7 vs. Row 11: -30.13
mGPR17 [1]; mGPR17 (100), log [MDL29,951] (M) -6.4 vs. Vehicle, Forskolin stimulation, Figure 4B
  Mean Diff. (Tukey's multiple comparisons test), cAMP, Row 6 vs. Row 11: -28.75
mGPR17 [1]; mGPR17 (100), log [MDL29,951] (M) -7.0 vs. Vehicle, Forskolin stimulation, Figure 4B
  Mean Diff. (Tukey's multiple comparisons test), cAMP, Row 5 vs. Row 11: -21.6
mGPR17 [1]; mGPR17 (100), log [MDL29,951] (M) -7.6 vs. Vehicle, Forskolin stimulation, Figure 4B
  Mean Diff. (Tukey's multiple comparisons test), cAMP, Row 4 vs. Row 11: -16.65
mGPR17 [1]; mGPR17 (100), log [MDL29,951] (M) -8.2 vs. Vehicle, Forskolin stimulation, Figure 4B
  Mean Diff. (Tukey's multiple comparisons test), cAMP, Row 3 vs. Row 11: -3.513
mGPR17 [1]; mGPR17 (100), log [MDL29,951] (M) -8.8 vs. Vehicle, Forskolin stimulation, Figure 4B
  Mean Diff. (Tukey's multiple comparisons test), cAMP, Row 2 vs. Row 11: -3.853
mGPR17 [1]; mGPR17 (100), log [MDL29,951] (M) -9.4 vs. Vehicle, Forskolin stimulation, Figure 4B
  Mean Diff. (Tukey's multiple comparisons test), cAMP, Row 1 vs. Row 11: -5.46
mGPR17 [2]; 3 µM forskolin
  cAMP Maximum Inhibition (% Inhibition): 61±3.4%
  cAMP Potency (pEC50) (reversal of inhibition): 4.74±0.23
  cAMP Potency (pIC50): 8.48±0.20
mGPR17 [2]; 3 µM forskolin, read-out: cAMP Potency EC50 (reversal of inhibition)
  EC50: 18 µM
mGPR17 [2]; 3 µM forskolin-stimulated GloSensor cAMP, read-out: cAMP Potency IC50
  IC50: 0.0033 µM
mGPR17 [2]; 100 μM MDL29,951, 3 µM forskolin
  cAMP Effect of 100 μM MDL (% Inhibition): 45±6.3%
hGPR17L-V96M; 10 µM forskolin, GLUTag hGPR17L-V96M
  effect on forskolin-stimulated cAMP: no significant effect
hGPR17L-V96M; hGPR17L-V96M (200), log [MDL29,951] (M) -4.0 vs. Vehicle, Forskolin stimulation, Figure 4B
  Mean Diff. (Tukey's multiple comparisons test), cAMP, Row 10 vs. Row 11: -6.053
hGPR17L-V96M; hGPR17L-V96M (200), log [MDL29,951] (M) -4.6 vs. Vehicle, Forskolin stimulation, Figure 4B
  Mean Diff. (Tukey's multiple comparisons test), cAMP, Row 9 vs. Row 11: -5.593
hGPR17L-V96M; hGPR17L-V96M (200), log [MDL29,951] (M) -5.2 vs. Vehicle, Forskolin stimulation, Figure 4B
  Mean Diff. (Tukey's multiple comparisons test), cAMP, Row 8 vs. Row 11: -7.097
hGPR17L-V96M; hGPR17L-V96M (200), log [MDL29,951] (M) -5.8 vs. Vehicle, Forskolin stimulation, Figure 4B
  Mean Diff. (Tukey's multiple comparisons test), cAMP, Row 7 vs. Row 11: -12.44
hGPR17L-V96M; hGPR17L-V96M (200), log [MDL29,951] (M) -6.4 vs. Vehicle, Forskolin stimulation, Figure 4B
  Mean Diff. (Tukey's multiple comparisons test), cAMP, Row 6 vs. Row 11: -8.68
hGPR17L-V96M; hGPR17L-V96M (200), log [MDL29,951] (M) -7.0 vs. Vehicle, Forskolin stimulation, Figure 4B
  Mean Diff. (Tukey's multiple comparisons test), cAMP, Row 5 vs. Row 11: -6.907
hGPR17L-V96M; hGPR17L-V96M (200), log [MDL29,951] (M) -7.6 vs. Vehicle, Forskolin stimulation, Figure 4B
  Mean Diff. (Tukey's multiple comparisons test), cAMP, Row 4 vs. Row 11: -4.737
hGPR17L-V96M; hGPR17L-V96M (200), log [MDL29,951] (M) -8.2 vs. Vehicle, Forskolin stimulation, Figure 4B
  Mean Diff. (Tukey's multiple comparisons test), cAMP, Row 3 vs. Row 11: -3.133
hGPR17L-V96M; hGPR17L-V96M (200), log [MDL29,951] (M) -8.8 vs. Vehicle, Forskolin stimulation, Figure 4B
  Mean Diff. (Tukey's multiple comparisons test), cAMP, Row 2 vs. Row 11: 3.127
hGPR17L-V96M; hGPR17L-V96M (200), log [MDL29,951] (M) -9.4 vs. Vehicle, Forskolin stimulation, Figure 4B
  Mean Diff. (Tukey's multiple comparisons test), cAMP, Row 1 vs. Row 11: -1.35
GLUTag cells; 300 nM PGE2, control transduction condition
  effect on PGE2-stimulated cAMP levels: no effect
GLUTag cells; 300 nM PMA, control-transduced cells
  effect on cAMP levels upon PMA treatment: no effect
GLUTag cells; log [MDL29,951] (M) -4.0
  Mean Diff. of cAMP, MDL29,951 vs FSK alone (Tukey): 0.00975
GLUTag cells; log [MDL29,951] (M) -4.6
  Mean Diff. of cAMP, MDL29,951 vs FSK alone (Tukey): 0.066
GLUTag cells; log [MDL29,951] (M) -5.2
  Mean Diff. of cAMP, MDL29,951 vs FSK alone (Tukey): 0.1185
GLUTag cells; log [MDL29,951] (M) -5.8
  Mean Diff. of cAMP, MDL29,951 vs FSK alone (Tukey): 0.114
GLUTag cells; log [MDL29,951] (M) -6.4
  Mean Diff. of cAMP, MDL29,951 vs FSK alone (Tukey): 0.183
GLUTag cells; log [MDL29,951] (M) -7.0
  Mean Diff. of cAMP, MDL29,951 vs FSK alone (Tukey): 0.173
GLUTag cells; log [MDL29,951] (M) -7.6
  Mean Diff. of cAMP, MDL29,951 vs FSK alone (Tukey): 0.2335
GLUTag cells; log [MDL29,951] (M) -8.2
  Mean Diff. of cAMP, MDL29,951 vs FSK alone (Tukey): 0.2168
GLUTag cells; log [MDL29,951] (M) -8.8
  Mean Diff. of cAMP, MDL29,951 vs FSK alone (Tukey): 0.0115
GLUTag cells; log [MDL29,951] (M) -9.4
  Mean Diff. of cAMP, MDL29,951 vs FSK alone (Tukey): -0.09325
GLUTag cells; control-transduced cells, 10 µM forskolin
  effect on forskolin-stimulated cAMP: no effect
hGPR17L; 100 nM YM-254890, 10 µM forskolin
  effect on forskolin-stimulated cAMP upon treatment with Gq inhibitor YM-254890: inhibited
hGPR17L; 100 ng/mL PTX, 10 µM forskolin
  inhibition of forskolin-stimulated cAMP in the presence of PTX: unable to inhibit
hGPR17L; 10 µM forskolin, 500 µM IBMX, GLUTag hGPR17L, read-out: IC50, inhibition of forskolin-stimulated cAMP
  IC50: 0.029 µM
hGPR17L; [3]
  pEC50, reversal of inhibition of forskolin-stimulated cAMP: 4.94 ± 0.09
  pIC50, inhibition of forskolin-stimulated cAMP: 7.54 ± 0.11
hGPR17L; 10 µM forskolin, GLUTag hGPR17L, read-out: EC50, reversal of inhibition of forskolin-stimulated cAMP at higher concentrations
  EC50: 12 µM
hGPR17L; +100 nM YM-254890
  Predicted (LS) mean diff.: -29.51
hGPR17L; +100 ng/mL PTX
  Predicted (LS) mean diff.: 28.26
